From US12509465B2, “Benzoimidazole derivatives as anticancer agents” (CENTRE LEON BERARD, priority 2016, dated 2025)

Columns and labels:
Myd88-ERK1 = Myd88-ERK1 (Homo sapiens (Human), UniProt P27361); test: HTRF assay of MyD88-ERK1 interaction; assay type: binding; conditions: 6xHis-ERK1 7.5 nM, biotin-MyD88peptide 25 nM; read-out: IC50* (μM) on Myd88-ERK1 in HRTF Assay
From the text: (§1) [drawing 67] 2-(4-dimethylamino-phenyl)-1H-benzoimidazole-5-carboxylic acid (3-chloro-phenyl)-amide was synthesized from 2-(4-dimethylamino-phenyl)-1H-benzoimidazole-5-carboxylic acid and 3-chloro-phenylamine by following the procedure for example 1. ^1H NMR (400 MHz, DMSO-d6) δ 12.90 (s, 1H), 10.37 (s, 1H), 8.17 (s, 1H), 8.08-7.98 (m, 3H), 7.82-7.73 (m, 2H), 7.61 (d, J=8.3 Hz, 1H), 7.39 (t, J=8.1 Hz, 1H), 7.15 (ddd, J=8.0, 2.1, 0.9 Hz, 1H), 6.91-6.81 (m, 2H), 3.02 (s, 6H). MS m/z (M+H) 390.9. 2/Biological Activity 2-1/In Vitro Determination of Compound Activity by HRTF Assay Principle: In the experiment, recombinant Erk1 and Erk2, tagged with a polyhistidine stretch in their N-terminal part were used. To reproduce the interaction between ERK1/2 and Myd88, a peptide corresponding to amino acids 24-40 of Myd88 was used: biotin-Ahx-[…] with Ahx being aminohexanoic acid as a spacer (biotin-MyD88peptide). This peptide encompassed the interaction motif of Myd88 with the CD domain of ERK1/2. To perform the HTRF assay this peptide was N-terminally labelled with biotin. To detect the interaction between the peptide and Erk1 or Erk2 the following components were used: an antibody directed against the His-tag, labelled with the donor fluorophore (Europium cryptate); The streptavidine protein, labelled with the acceptor XL665 fluorophore directed against the biotin. All the components except Erk1, Erk2 and the peptide were purchased from Cisbio (Condolet, France).
(§2) Homogeneous Time Resolved Fluorescence (HTRF) assay combines two techniques: Fluorescence Resonance Energy Transfer (FRET) and Time Resolved (TR) measurement. In TR-FRET, a transfer of fluorescence between a donor and an acceptor molecule generates a signal that can then be measured. This energy transfer is only possible when both fluorophores are close enough to each other. Therefore, this method can be used to detect protein-protein interaction.
For MyD88-ERK1 interaction the reaction medium contained: 6xHis-ERK1 at 7.5 nM, biotin-MyD88peptide at 25 nM, anti-Histidine-Cryptate antibody at 1.3325 nM and XL665 labeled-Streptavidine at 3.125 nM.
(§3) Concentrations of compounds to be tested ranged from 0.1 μM to 100 μM. Stock solutions of compounds according to the invention were prepared at 10 mM in DMSO. […] The plate was incubated at room temperature for 2 hours and fluorescence was measured using a TECAN Infinite F500 Reader®.
(§4) Results are calculated as the variation of fluorescence (Delta F) between control and samples. Delta F was calculated using the following equation: [(Ratio sample-Ratio of the arithmetic mean of the control)/Ratio of the arithmetic mean of the control]×100 where ratio=(Acceptor fluorescence/Donor fluorescence)×10000. […]

Myd88-ERK2 = Myd88-ERK2 (Homo sapiens (Human), UniProt P28482); test: HTRF assay of MyD88-ERK2 interaction; assay type: binding; conditions: GST-ERK2 50 nM, biotin-MyD88pep 50 nM; read-out: IC50* (μM) on Myd88-ERK2 in HRTF Assay
From the text: as §1, §2
For MyD88-ERK2 interaction the reaction medium contained: GST-ERK2 at 50 nM, biotin-MyD88pep at 50 nM, anti-GST-Cryptate antibody at 0.8 nM and XL665 labeled-Streptavidine at 12.5 nM.
as §3, §4

ERK1/2 = test: Cell-based assay, SRE luciferase reporter in HCT116 p53+/+ cells; conditions: Homo sapiens, HCT-116, 2 hours pretreatment, 10% FCS stimulation
From the text: The terms “SRE promoter” refer to “Serum response elements”, which is a DNA sequence (CC(A/T)6GG) that is used upstream of reporter genes and is known to be the binding site of the SRF (Serum response factor) proteins encoded by SRF gene identified by Gene Bank number (Gene ID: 6722, NM_003131.2). To determine the activity of the compounds on ERK1/2, Human Colon Tumor (HCT116) p53+/+ cell line stably transformed to express the luciferase reporter gene under the control of the serum response element (SRE) was used. This cell line was cultured in McCoy's medium supplemented with 10% FBS, 2 mM glutamine, 1% antibiotics and 1 μM of puromycin.
HCT116 p53+/+ SRE luciferase cells were plated in 96-well flat-bottom plate at 20,000/well and incubated at 37° C. for 36 hours. The medium was discarded and replaced by 100 μl of serum free medium for 16 hours. Cells were then pretreated for 2 hours with the compounds according to the invention at various concentrations (from 0.001 μM to 80 μM). Cells were then stimulated by addition of 10% FCS and incubated at 37° C. for four additional hours and the expression of reporter gene was assessed using the One-Glo Luciferase reagent (Promega). Luminescence was quantified after 5 minutes in a TECAN infinite M200 Reader (Männedorf, Switzerland). The results are presented below at paragraph 2-5.

HCT116 cells = test: Apoptosis assay (Caspase-Glo 3/7); assay type: cell-based, Human; conditions: HCT116 p53+/+ cells, 16 h treatment, DMSO treated cells as control
Procedure: Cellular apoptosis was measured using the Caspase-Glo® 3/7 assay kit (Promega). To perform this study, HCT116 p53+/+ cells were seeded at a density of 7,000 cell/well in 96-half wells plate and maintained 24 h at 37° C. in McCoy's medium supplemented with 2 mM glutamine, 1% penicillin, 1% of streptomycin and 10% FBS. Cells were then treated with the compounds at various concentrations ranging from 1 μM to 100 μM depending on the compound. The DMSO concentration was normalized at 1% in each well and the cells were incubated for 16 h. Caspase 3/7 activity was monitored using caspase-Glo 3/7 kit according to the manufacturer instructions. Briefly, 50 μL of Caspase-Glo® 3/7 reagent was added in each well and the plates were gently agitated for 30 s and let at room temperature for an additional hour. Luminescence was then measured in a TECAN infinite 200 microplate reader. Results are expressed as the fold induction of caspase 3/7 activation using DMSO treated cells as control. The results are presented on FIGS. 1 to 3.

Chain of Myd88-ERK1 (P27361 whole entry): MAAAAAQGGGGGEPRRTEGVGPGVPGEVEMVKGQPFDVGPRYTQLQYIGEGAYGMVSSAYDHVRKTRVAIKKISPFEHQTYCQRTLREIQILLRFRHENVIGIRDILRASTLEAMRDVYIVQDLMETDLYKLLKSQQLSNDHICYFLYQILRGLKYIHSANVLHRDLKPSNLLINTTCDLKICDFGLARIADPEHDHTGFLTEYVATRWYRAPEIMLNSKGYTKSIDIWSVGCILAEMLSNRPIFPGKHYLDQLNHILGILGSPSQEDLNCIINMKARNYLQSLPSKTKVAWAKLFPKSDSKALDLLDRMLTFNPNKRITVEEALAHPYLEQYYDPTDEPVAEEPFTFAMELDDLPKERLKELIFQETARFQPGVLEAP
Chain of Myd88-ERK2 (P28482 whole entry): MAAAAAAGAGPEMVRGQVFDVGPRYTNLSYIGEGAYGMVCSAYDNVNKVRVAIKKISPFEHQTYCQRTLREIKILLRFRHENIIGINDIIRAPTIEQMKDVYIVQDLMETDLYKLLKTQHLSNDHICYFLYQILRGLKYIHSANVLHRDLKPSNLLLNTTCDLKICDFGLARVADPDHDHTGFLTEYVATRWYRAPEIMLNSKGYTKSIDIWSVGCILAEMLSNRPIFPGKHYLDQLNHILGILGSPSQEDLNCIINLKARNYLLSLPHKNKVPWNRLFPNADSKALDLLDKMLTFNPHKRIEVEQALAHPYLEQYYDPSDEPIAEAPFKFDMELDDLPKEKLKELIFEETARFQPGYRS

| IC50 (Myd88-ERK1) | IC50 (Myd88-ERK2) | IC50 (ERK1/2) | SMILES | induction of apoptosis (fold induction of caspase 3/7 activity) (HCT116 cells) |
| --- | --- | --- | --- | --- |
| > 50 µM | > 50 µM | > 50 µM | CN(C)c1ccc(-c2nc3cc(NC(=O)c4ccccc4)ccc3[nH]2)cc1 [Comp. ex., reference compound] | – |
| 8 µM | 11.8 µM | 0.32 µM | CN(C)c1ccc(-c2nc3cc(C(=O)Nc4ccncc4)ccc3[nH]2)cc1 [Compound 2, 2-(4-Dimethylamino-phenyl)-1H-benzoimidazole-5-carboxylic acid pyridin-4-ylamide] | induction of apoptosis |
| 4.44 µM | 2.34 µM | 0.48 µM | COc1ccc(NC(=O)c2ccc3[nH]c(-c4ccc(N(C)C)cc4)nc3c2)cn1 [Compound 6, 2-(4-Dimethylamino-phenyl)-1H-benzoimidazole-5-carboxylic acid (6-methoxy-pyridin-3-yl)-amide] | induction of apoptosis |
| 6.15 µM | 25.5 µM | 0.79 µM | CCc1ccc(NC(=O)c2ccc3[nH]c(-c4ccc(N(C)C)cc4)nc3c2)cn1 [Compound 7, 2-(4-Dimethylamino-phenyl)-1H-benzoimidazole-5-carboxylic acid (6-ethylpyridin-3-yl)-amide] | induction of apoptosis |
